Results published in the supplement of paper PMC10627819.

What was measured:
S. pneumoniae D39V [1] = test: fitness (endpoint OD595 vs no drug) (fraction); higher = more growth
Procedure, shortened: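 Fitness expresses the optical density reached at the stationary-phase transition as a fraction of the robust mean of no-drug control wells. It is capped at 1. Measurements were OD595 every 30 min for 14 h at 37 °C after inoculation of 384-well plates at OD595 0.01 (30 µl, or 55 µl for S. pneumoniae), minus the first reading.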

B. subtilis 168 = test: Bliss interaction score (quartile over a dose matrix) (fitness difference); higher = more antagonism (negative = synergy)
Procedure, shortened: (§1)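 The Bliss score was calculated by subtracting the expected fitness, the product of single-drug values, from the observed fitness. OD595 at entry into stationary phase, over the plate's robust no-drug mean and capped at 1, served as the fitness readout. Single-drug values were inferred from combination data, and scores are summarised by quartiles across technical, biological and donor/recipient replicates.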

S. aureus DSM 20231 = test: as above
Procedure, shortened: as §1

S. aureus Newman = test: as above
Procedure, shortened: as §1

S. pneumoniae D39V [2] = test: as above
Procedure, shortened: as §1
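For Bliss interaction score (quartile over a dose matrix) in this document: first quartile when negative (synergy) and third quartile when positive (antagonism).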

C[C@@H](O)[C@H]1C(=O)N2C(C(=O)O)=C(SCCNC=N)C[C@H]12 [Imipenem] + CCC(C)C1C(=O)NC(=C)C(=O)NC(C(=O)NC(CSCC(C(=O)N1)NC(=O)/C(=C/C)/NC(=O)C(C(C)CC)N)C(=O)NC2C(SCC(NC(=O)CNC(=O)C3CCCN3C2=O)C(=O)NC(CCCCN)C(=O)NC4C(SCC(NC(=O)CNC(=O)C(NC(=O)C(NC(=O)C(NC(=O)CNC4=O)C)CC(C)C)CCSC)C(=O)NC(CC(=O)N)C(=O)NC(CCSC)C(=O)NC(CCCCN)C(=O)NC5C(SCC6C(=O)NC(C(=O)NC(CSC(C(C(=O)N6)NC(=O)C(NC5=O)C)C)C(=O)NC(CO)C(=O)NC(C(C)CC)C(=O)NC(CC7=CN=CN7)C(=O)NC(C(C)C)C(=O)NC(=C)C(=O)NC(CCCCN)C(=O)O)CC8=CN=CN8)C)C)C)CC(C)C [Nisin]
fitness, S. pneumoniae D39V [1], main component drawn
Conditions	first compound 0.005 µg/mL	first compound 0.0065 µg/mL	first compound 0.01 µg/mL	first compound 0.013 µg/mL	first compound 0.02 µg/mL	first compound 0.026 µg/mL
partner 0.4275 µg/mL	≥ 1	–	0.988	–	≥ 1	–
partner 0.855 µg/mL	0.992	–	0.993	–	≥ 1	–
partner 1.6 µg/mL	–	0	–	0.193	–	0.448
partner 1.71 µg/mL	0.133	–	0.0676	–	0.0904	–
partner 3.2 µg/mL	–	0	–	0.0047	–	0.0017
partner 6.4 µg/mL	–	0	–	0.0067	–	0

main component drawn
Conditions	Bliss interaction score
B. subtilis 168	-0.0431
S. aureus DSM 20231	0.0486
S. aureus Newman	-0.0142
S. pneumoniae D39V [2]	-0.0573

C[C@@H](O)[C@H]1C(=O)N2C(C(=O)O)=C(SCCNC=N)C[C@H]12 [Imipenem] + CCC[C@@H]1C[C@@H](C(=O)N[C@@H]([C@H]2O[C@H](SC)[C@H](O)[C@@H](O)[C@H]2O)[C@@H](C)O)N(C)C1 [Lincomycin]
fitness, S. pneumoniae D39V [1]
Conditions	first compound 0.005 µg/mL	first compound 0.0065 µg/mL	first compound 0.01 µg/mL	first compound 0.013 µg/mL	first compound 0.02 µg/mL	first compound 0.026 µg/mL
partner 0.2 µg/mL	–	0.68	–	0.738	–	0.693
partner 0.215 µg/mL	0.829	–	0.846	–	0.814	–
partner 0.4 µg/mL	–	0.563	–	0.626	–	0.596
partner 0.43 µg/mL	0.719	–	0.722	–	0.71	–
partner 0.8 µg/mL	–	0.0187	–	0.0703	–	0.0319
partner 0.86 µg/mL	0.474	–	0.451	–	0.453	–

Conditions	Bliss interaction score
B. subtilis 168	0.163
S. aureus DSM 20231	0.09
S. aureus Newman	0.0416
S. pneumoniae D39V [2]	-0.0603

C[C@@H](O)[C@H]1C(=O)N2C(C(=O)O)=C(SCCNC=N)C[C@H]12 [Imipenem] + CCN(CC)CCOC(=O)c1ccc(N)cc1 [Procaine]
fitness, S. pneumoniae D39V [1], one replicate
Conditions	first compound 0.005 µg/mL	first compound 0.01 µg/mL	first compound 0.02 µg/mL
partner 85.5 µg/mL	0.932	0.963	0.985
partner 171 µg/mL	≥ 1	0.994	≥ 1
partner 342 µg/mL	0.923	0.931	0.883

fitness, S. pneumoniae D39V [1]
Conditions	first compound 0.0065 µg/mL	first compound 0.013 µg/mL	first compound 0.026 µg/mL
partner 85.5 µg/mL	0.977	0.978	0.888
partner 171 µg/mL	0.957	0.963	0.917
partner 342 µg/mL	0.957	0.912	0.841

Conditions	Bliss interaction score
B. subtilis 168	0.0429
S. aureus DSM 20231	0.0667
S. aureus Newman	0.0422
S. pneumoniae D39V [2]	0.0493

C[C@@H](O)[C@H]1C(=O)N2C(C(=O)O)=C(SCCNC=N)C[C@H]12 [Imipenem] + CN1C2=CC=CC=C2N=C3C1=CC=CC3=O [Pyocyanin]
fitness, S. pneumoniae D39V [1], one replicate
Conditions	first compound 0.005 µg/mL	first compound 0.01 µg/mL	first compound 0.02 µg/mL
partner 0.325 µg/mL	0.945	0.947	≥ 1
partner 0.65 µg/mL	0.979	0.959	0.957

fitness, S. pneumoniae D39V [1]
Conditions	first compound 0.0065 µg/mL	first compound 0.013 µg/mL	first compound 0.026 µg/mL
partner 0.325 µg/mL	0.975	≥ 1	0.983
partner 0.65 µg/mL	0.936	0.929	0.892
partner 1.3 µg/mL	0.591	0.698	0.657

Conditions	Bliss interaction score
B. subtilis 168	0.0885
S. aureus DSM 20231	-0.0657
S. aureus Newman	0.0283
S. pneumoniae D39V [2]	0.0503

C[C@@H](O)[C@H]1C(=O)N2C(C(=O)O)=C(SCCNC=N)C[C@H]12 [Imipenem] + CN(C)C(=O)C(CCN1CCC(O)(c2ccc(Cl)cc2)CC1)(c1ccccc1)c1ccccc1 [Loperamide]
fitness, S. pneumoniae D39V [1]
Conditions	first compound 0.005 µg/mL	first compound 0.0065 µg/mL	first compound 0.01 µg/mL	first compound 0.013 µg/mL	first compound 0.02 µg/mL	first compound 0.026 µg/mL
partner 17.14 µg/mL	0.926	–	0.937	–	0.952	–
partner 20 µg/mL	–	≥ 1	–	≥ 1	–	0.986
partner 34.28 µg/mL	0.907	–	0.947	–	0.942	–
partner 40 µg/mL	–	≥ 1	–	≥ 1	–	0.988
partner 80 µg/mL	–	0.582	–	0.582	–	0.625

S. pneumoniae D39V [1], partner 68.57 µg/mL, one replicate
Conditions	fitness
first compound 0.005 µg/mL	0.935
first compound 0.01 µg/mL	0.93
first compound 0.02 µg/mL	0.94

Conditions	Bliss interaction score
B. subtilis 168	-0.203
S. aureus DSM 20231	0.0662
S. aureus Newman	0.0304
S. pneumoniae D39V [2]	0.0901

C[C@@H](O)[C@H]1C(=O)N2C(C(=O)O)=C(SCCNC=N)C[C@H]12 [Imipenem] + CN(C)c1cc(NC(=O)CNC(C)(C)C)c(O)c2c1C[C@H]1C[C@H]3[C@H](N(C)C)C(O)=C(C(N)=O)C(=O)[C@@]3(O)C(O)=C1C2=O [Tigecycline]
fitness, S. pneumoniae D39V [1]
Conditions	first compound 0.005 µg/mL	first compound 0.0065 µg/mL	first compound 0.01 µg/mL	first compound 0.013 µg/mL	first compound 0.02 µg/mL	first compound 0.026 µg/mL
partner 0.65 µg/mL	0.925	0.992	0.898	0.999	0.932	0.863
partner 1.3 µg/mL	0.922	0.979	0.874	0.893	0.938	0.946
partner 2.6 µg/mL	0.859	0.994	0.87	0.943	0.877	0.956

Conditions	Bliss interaction score
B. subtilis 168	-0.0658
S. aureus DSM 20231	0.0348
S. aureus Newman	-0.0535
S. pneumoniae D39V [2]	0.0689

C[C@@H](O)[C@H]1C(=O)N2C(C(=O)O)=C(SCCNC=N)C[C@H]12 [Imipenem] + CN(N=O)C(=O)N[C@@H](C=O)[C@@H](O)[C@H](O)[C@H](O)CO [Streptozotocin]
fitness, S. pneumoniae D39V [1], one replicate
Conditions	first compound 0.005 µg/mL	first compound 0.01 µg/mL	first compound 0.02 µg/mL
partner 1.2 µg/mL	0.986	0.949	≥ 1
partner 2.4 µg/mL	0.983	0.931	0.97
partner 4.8 µg/mL	0.917	0.86	0.94

fitness, S. pneumoniae D39V [1]
Conditions	first compound 0.0065 µg/mL	first compound 0.013 µg/mL	first compound 0.026 µg/mL
partner 1.2 µg/mL	0.966	0.908	0.908
partner 2.4 µg/mL	0.942	0.884	0.824
partner 4.8 µg/mL	0.968	0.945	0.966

Conditions	Bliss interaction score
B. subtilis 168	-0.138
S. aureus DSM 20231	-0.0317
S. aureus Newman	-0.0113
S. pneumoniae D39V [2]	0.0577

C[C@@H](O)[C@H]1C(=O)N2C(C(=O)O)=C(SCCNC=N)C[C@H]12 [Imipenem] + CN[C@@H]1[C@H](O)[C@H](NC)[C@H]2O[C@@]3(O)C(=O)C[C@@H](C)O[C@H]3O[C@@H]2[C@H]1O [Spectinomycin]
fitness, S. pneumoniae D39V [1], one replicate
Conditions	first compound 0.005 µg/mL	first compound 0.01 µg/mL	first compound 0.02 µg/mL
partner 4 µg/mL	0.988	0.983	≥ 1
partner 8 µg/mL	0.914	0.886	0.948

fitness, S. pneumoniae D39V [1]
Conditions	first compound 0.0065 µg/mL	first compound 0.013 µg/mL	first compound 0.026 µg/mL
partner 4 µg/mL	0.895	0.878	–
partner 8 µg/mL	0.878	0.864	0.813
partner 16 µg/mL	0.788	0.828	0.888

Conditions	Bliss interaction score
B. subtilis 168	-0.0558
S. aureus DSM 20231	-0.043
S. aureus Newman	-0.0557
S. pneumoniae D39V [2]	0.0606

C[C@@H](O)[C@H]1C(=O)N2C(C(=O)O)=C(SCCNC=N)C[C@H]12 [Imipenem] + CN[C@@H]1[C@H](O[C@H]2[C@H](O[C@H]3[C@H](O)[C@@H](O)[C@H](N=C(N)N)[C@@H](O)[C@@H]3N=C(N)N)O[C@@H](C)[C@]2(O)C=O)O[C@@H](CO)[C@H](O)[C@H]1O [Streptomycin]
fitness, S. pneumoniae D39V [1], one replicate
Conditions	first compound 0.005 µg/mL	first compound 0.01 µg/mL	first compound 0.02 µg/mL
partner 2 µg/mL	≥ 1	0.955	0.988
partner 16 µg/mL	0.779	0.813	0.786

fitness, S. pneumoniae D39V [1]
Conditions	first compound 0.005 µg/mL	first compound 0.0065 µg/mL	first compound 0.01 µg/mL	first compound 0.013 µg/mL	first compound 0.02 µg/mL	first compound 0.026 µg/mL
partner 2 µg/mL	–	0.959	–	0.868	–	0.847
partner 4 µg/mL	0.965	0.923	0.986	0.903	0.97	0.886
partner 8 µg/mL	0.837	0.916	0.863	0.907	0.875	0.85

Conditions	Bliss interaction score
B. subtilis 168	0.1
S. aureus DSM 20231	-0.0295
S. aureus Newman	0.076
S. pneumoniae D39V [2]	0.0603

C[C@@H](O)[C@H]1C(=O)N2C(C(=O)O)=C(SCCNC=N)C[C@H]12 [Imipenem] + CN[C@H](CC(C)C)C(=O)N[C@H]1C(=O)N[C@@H](CC(N)=O)C(=O)N[C@H]2C(=O)N[C@H]3C(=O)N[C@H](C(=O)N[C@H](C(=O)O)c4cc(O)cc(O)c4-c4cc3ccc4O)[C@H](O)c3ccc(c(Cl)c3)Oc3cc2cc(c3O[C@@H]2O[C@H](CO)[C@@H](O)[C@H](O)[C@H]2O[C@H]2C[C@](C)(N)[C@H](O)[C@H](C)O2)Oc2ccc(cc2Cl)[C@H]1O [Vancomycin]
fitness, S. pneumoniae D39V [1]
Conditions	first compound 0.005 µg/mL	first compound 0.0065 µg/mL	first compound 0.01 µg/mL	first compound 0.013 µg/mL	first compound 0.02 µg/mL	first compound 0.026 µg/mL
partner 0.03125 µg/mL	0.991	–	0.973	–	0.958	–
partner 0.0625 µg/mL	0.943	–	0.928	–	0.922	–
partner 0.125 µg/mL	0.783	0.769	0.767	0.798	0.76	0.817
partner 0.25 µg/mL	–	0.0266	–	0.0839	–	0.0574
partner 0.5 µg/mL	–	0.0186	–	0.0324	–	0.0486

Conditions	Bliss interaction score
B. subtilis 168	-0.0736
S. aureus DSM 20231	0.0423
S. aureus Newman	-0.0669
S. pneumoniae D39V [2]	-0.184

C[C@@H](O)[C@H]1C(=O)N2C(C(=O)O)=C(SCCNC=N)C[C@H]12 [Imipenem] + CO[C@H]1/C=C/O[C@@]2(C)Oc3c(C)c(O)c4c(O)c(c(/C=N/N5CCN(C)CC5)c(O)c4c3C2=O)NC(=O)/C(C)=C\C=C\[C@H](C)[C@H](O)[C@@H](C)[C@@H](O)[C@@H](C)[C@H](OC(C)=O)[C@@H]1C [Rifampicin]
fitness, S. pneumoniae D39V [1], one replicate
Conditions	first compound 0.005 µg/mL	first compound 0.01 µg/mL	first compound 0.02 µg/mL
partner 0.025 µg/mL	0.856	0.81	0.816
partner 0.2 µg/mL	0	0	0

fitness, S. pneumoniae D39V [1]
Conditions	first compound 0.0065 µg/mL	first compound 0.013 µg/mL	first compound 0.02 µg/mL	first compound 0.026 µg/mL
partner 0.05 µg/mL	0.678	0.721	0.726	0.695
partner 0.1 µg/mL	0.402	–	–	0.361
partner 0.2 µg/mL	0.254	–	–	–

Conditions	Bliss interaction score
B. subtilis 168	0.0636
S. aureus DSM 20231	0.0391
S. aureus Newman	0.0149
S. pneumoniae D39V [2]	-0.106
